Results published in PMC9120013, “Ribosome inhibition by C9ORF72-ALS/FTD-associated poly-PR and poly-GR proteins revealed by cryo-EM” (Nature Communications, 2022).

Experiments:
[1] = test system: ribosomes on endogenous globin mRNAs in RRL; assay: Polysome profiling of RRL translating endogenous mRNA; type: biochemical, rabbit; conditions: 4 μM PR20, 4 μM GR20, 1 mM GDPCP; 5 min
Protocol: Polysome profiles were obtained using RRL untreated with nuclease, so that it contained endogenous mRNA. 100 μl reactions containing 50% RRL (Green Hectare) 30 μM hemin (Sigma), 75 mM KCl, 0.5 mM MgCl2, 1 mM ATP, 0.2 mM GTP, 2.1 mg/ml creatine phosphate, 30 μM of L-amino acid mix, 15 mg/ml yeast tRNA, 6 mM BME and, when appropriate, translation inhibitors (4 μM PR20, 4 μM GR20, cycloheximide, 40 μM harringtonine, or 1 mM GDPCP with 1 mM MgCl2) were assembled on ice. To start translation, the reactions were warmed in a heat block at either 30 °C or 37 °C as noted. After 5 min, reactions were terminated by addition of 100 μl of ice-cold Stop Buffer (50 mM Hepes-KOH pH 7.4, 150 mM KOAc, 10 mM Mg(OAc)2, and 200 μg/ml cycloheximide). The stopped reactions were applied to 10–50% sucrose gradients in Gradient Buffer (50 mM Hepes-KOH pH 7.4, 150 mM KOAc, 10 mM Mg(OAc)2, 2 mM DTT, and 100 μg/ml cycloheximide) and spun in an SW-41 rotor (Beckman Coulter) at 197,568xg (avg) for 2 h at 4 °C. Gradients were pumped on a Gradient Station (BioComp Instruments) at a pump rate of 0.29 mm/min and the absorbance at 254 nm was measured by an Econo UV monitor (Biorad) zeroed with 10% sucrose-gradient buffer. The traces were output as CSV files and imported into GraphPad Prism, where the 80S peaks were aligned. Controls were highly reproducible day-to-day. Each experimental condition is shown compared to concurrent, uninhibited control.

[2] = test system: ribosomes on endogenous beta-globin mRNA in RRL; assay: Toeprinting of 80S and 4-5-mer polysome fractions on beta-globin mRNA; type: biochemical, rabbit; conditions: for normalized ratio START to CDS, MEAN: 4-5-mer, primer B, mean of ten 20 bp windows
Protocol: Toeprinting analyses were carried out similarly to those in refs. [51],[74], using 80S and polysome (4–5-some) fractions collected from polysome profiles as described in “Polysome Profiles” except that reactions were doubled in size (200 μL), performed at 37 °C, and were stopped with ice-cold 1xAMV Buffer (50 mM Tris-HCl pH 8.3, 50 mM KCl, 5 mM MgCl2) with 200 μg/ml cycloheximide before being separated on at 10–35% sucrose gradient in 1xAMV buffer with 0.5 mM spermidine and 1 mM DTT. 600 μl of each fraction (80S or 4–5-mer) was supplemented with 10 mM DTT. Then 10 U of AMV reverse transcriptase (Promega), 120 nmol dNTPs, and 120 pmol of a 5'[6-carboxyfluorescein (FAM)]-labeled primer (IDT-DNA) were added. Two primers specific to the endogenous beta-globin mRNA in RRL were used in separate reactions: 5′-(FAM)-GGACTCGAAGAACCTCTG (as in ref. [74]) annealed 136 nucleotides downstream of the AUG or 5′-(FAM)-[…] annealed to the end of the 3'-UTR. Primers were extended at 37 °C for 30 min, and then the reaction were extracted in 1:1 phenol:chloroform, supplemented with 1/10 volume of 3 M sodium acetate pH 5.2, and precipitated with 2.5 volumes of 100% ethanol. Pellets were resuspended in 10 μl of deionized formamide (Applied Biosystems) with 1/20 volume of a 35-500 nucleotide orange-dye labeled DNA size standard (MCLab) and loaded onto a 96-well plate. The samples were sent for fragment analysis by capillary electrophoresis to the UMass Chan Medical School Molecular Biology Core Laboratory using an ABI3730XL DNA Fragment Analyzer with capillaries loaded with POP-7 polymer and with an injection voltage of 12.5 kV. Data collection was performed with GeneMapper software (ABI). Data were exported as.fsa files and were analyzed (aligning to ladder and background correction) in GeneMarker 3.0.1 software (SoftGenetics) running in demo mode. Screen captures of traces were taken and traces were integrated using the “Quantification” feature and manually adjusting sliders to include the desired nucleotide range.

[3] = test system: E. coli 70S ribosomes; assay: Erythromycin competition in the puromycin assay on 70S ribosomes; type: biochemical; conditions: for fMet-puromycin formed: 20 μM erythromycin and/or 2 μM PR20, 30 nM 70S, quenched at 300 s
Protocol: The assay was performed as described above for the puromycin kinetics, except that the 70S ribosomes were pre-incubated with 22 μM erythromycin for 5 min prior to adding PR20. The stock solution of erythromycin contained 2 mM erythromycin in ethanol, so the control reaction (70S with no erythromycin) and the reactions with erythromycin were prepared to contain the same amount of ethanol (1%). The final concentrations after addition of puromycin were: 30 nM 70S, 66 nM [^35S]-fMet-tRNA^fMet, 1 μM mRNA, 2 μM PR20 (no PR20 in the control reaction), 20 μM erythromycin (or no erythromycin in a control reaction), 50 µM puromycin (in 20 mM Tris-acetate (pH 7.0), 100 mM NH4OAc, 12 mM Mg(OAc)2 and 1% ethanol). Samples were quenched at 300 s when the uninhibited reaction had reached a plateau.

[4] = test system: translation in E. coli cell lysates; assay: Nanoluciferase translation in E. coli cell lysate (NEBExpress); type: biochemical; conditions: 1 μl of 200 μM stock in 10-μl reaction
Protocol: E. coli cell lysates (NEBExpress, NEB) were used to investigate bacterial translation inhibition by GR20 and PR20. We monitored the translation of an in vitro transcribed mRNA encoding a Shine-Dalgarno sequence preceding the nanoluciferase (Promega) open reading frame. The mRNA was prepared by in vitro transcription of a PCR-template obtained by amplifying the nanoluciferase open reading frame from the plasmid described in reference with the following primers: T7 + SD-forward: […], based on the pet28a+ plasmid and reverse: […]. […] Then 1 μl of water or different concentrations (10-100 μM) of PR20 or GR20 or 200 μM erythromycin were added and the plate was incubated at 37 °C for 5 min inside of an Infinite m1000 pro microplate reader (Tecan). Next, the nanoluciferase mRNA was added to the final concentration of 20 ng/μl in a 10-μl reaction. Translation reactions were incubated at 37 °C for 20 min, luminescence of the samples was continuously measured by the microplate reader to record the time course of protein synthesis. Time progress curves, obtained in the experiments, were processed in MS Excel, and the rate of change of the relative light units between 100 and 200 s was measured, the mean and SEM of three experiments is reported in column graph in Supplementary Fig. 2a.

[5] = even at 100 µM; cited from earlier work
Source text: (§1) This work uncovers how the toxic arginine-containing DPR proteins associated with C9ORF72-ALS/FTD inhibit translation. […] Poly-PR and poly-GR binding to large subunits and assembled 80S ribosomes would compete with the binding of initiator Met-tRNA or elongator tRNAs, and strongly interfere with peptidyl transfer, consistent with transl ...

[6] = test system: translation; conditions: even at 100 µM; cited from earlier work
Source text: as §1

[7] = molecular target: Oryctolagus cuniculus (rabbit) 80S ribosome (rabbit (Oryctolagus cuniculus)) (UniProt G1SVW5)
[8] = molecular target: Oryctolagus cuniculus (rabbit) 80S ribosome (rabbit (Oryctolagus cuniculus)) (UniProt G1SVW5); remark: listed apart in the source
[9] = molecular target: Escherichia coli 70S ribosome (E. coli)

Nc1nc2c(ncn2[C@@H]2O[C@H](COP(=O)(O)OP(=O)(O)CP(=O)(O)O)[C@@H](O)[C@H]2O)c(=O)[nH]1 [GDPCP]
polysome profile, half-mer peaks [1]: increase in half-mer peaks | site of ribosome accumulation, toe-printing of polysome fractions [2]: accumulate within the open reading frame | Ratio (START to CDS) ([2]; 80S fraction, primer A, Fig. 2f independent repeat): 1.314 | Normalized ratio START/ORF ([2]; 80S fraction, primer A, Fig. 2f independent repeat, no inhibitor = 1): 0.4872 | normalized ratio START to CDS, MEAN ([2]; Fig. 2g): 0.7887 | normalized ratio START to CDS, MEAN ([2]; Fig. 2h independent repeat): 0.4286

CC[C@H]1OC(=O)[C@H](C)[C@@H](O[C@H]2C[C@@](C)(OC)[C@@H](O)[C@H](C)O2)[C@H](C)[C@@H](O[C@@H]2O[C@H](C)C[C@H](N(C)C)[C@H]2O)[C@](C)(O)C[C@@H](C)C(=O)[C@H](C)[C@@H](O)[C@]1(C)O [erythromycin]
fMet-puromycin formed ([3]; first column (replicate 1)): 1468 | fMet-puromycin formed ([3]; second column (replicate 2)): 1479 | effect of erythromycin preincubation on inhibition by PR20 ([3]; 20 μM erythromycin, 2 μM PR20): prevents the inhibitory action of PR20 | effect on nanoluciferase translation in E. coli cell extracts [4]: Inhibition of nanoluciferase translation

GRKKRRQRRRPPQ [TAT, arginine-rich polypeptide]
cell death [5]: not to cause translation inhibition or cell death | translation inhibition [6]: not to cause translation inhibition

PR20 (poly-proline-arginine, 20 repeats) (peptide)
IC50 of translation of nanoluciferase mRNA in 33% rabbit reticulocyte lysate [7]: 325 nM | IC50 of translation of nanoluciferase mRNA in 50% rabbit reticulocyte lysate [7]: 840 nM | concentration at which inhibition of peptidyl transfer to puromycin begins on purified rabbit 80S ribosomes [8]: 100 nM | apparent inhibition constant (Ki) of peptidyl transfer from [35S]-fMet-tRNAfMet to puromycin on E. coli 70S ribosomes [9]: 44 nM

PR40 (poly-proline-arginine, 40 repeats) (peptide)
apparent inhibition constant (Ki) of peptidyl transfer to puromycin on purified rabbit 80S ribosomes [8]: < 30 nM | apparent inhibition constant (Ki) of peptidyl transfer to puromycin on E. coli 70S ribosomes [9]: < 30 nM

RRRRNRTRRNRRRVR [FHV, arginine-rich polypeptide]
cell death [5]: not to cause translation inhibition or cell death | translation inhibition [6]: not to cause translation inhibition

RRRRRRRRRRRR [R12, arginine-rich polypeptide]
cell death [5]: not to cause translation inhibition or cell death | translation inhibition [6]: not to cause translation inhibition
